The numbers were not newly measured in paper PMC3775475 (European journal of medicinal chemistry, 2013), which cites them from elsewhere.

The target in the data set is kappa-OR (UniProt P41145).
Chain of kappa-OR (P41145 whole entry): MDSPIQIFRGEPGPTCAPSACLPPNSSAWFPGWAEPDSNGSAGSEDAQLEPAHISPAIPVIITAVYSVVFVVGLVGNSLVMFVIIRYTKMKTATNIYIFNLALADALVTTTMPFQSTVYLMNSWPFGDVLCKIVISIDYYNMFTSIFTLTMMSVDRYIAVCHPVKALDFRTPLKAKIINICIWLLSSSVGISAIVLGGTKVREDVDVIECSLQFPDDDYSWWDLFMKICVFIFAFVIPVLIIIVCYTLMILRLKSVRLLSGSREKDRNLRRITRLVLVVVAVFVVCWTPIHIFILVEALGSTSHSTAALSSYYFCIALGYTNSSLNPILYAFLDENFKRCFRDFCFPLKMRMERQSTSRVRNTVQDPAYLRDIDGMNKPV

The Ki is the equilibrium dissociation constant of an inhibitor or competing ligand from its target. For `CC[C@@H](C)[C@@H](NC(=O)[C@@H](Cc1ccccc1)NC(=O)[C@H](N)Cc1ccccc1)C(=O)N[C@H](CCCNC(=N)N)C(N)=O` [compound 4], the Ki was 2.4 nM.
“ff(D-nle)r-NH2 (R1 f, R2 f, R3 nle, R4 r) [compound 1]”: the inhibition constant Ki was 1.2 nM.
